Measurements from patent US20210063414A1, “METHODS FOR PREVENTING AND/OR TREATING BONE LOSS CONDITIONS BY MODULATING IRISIN” (Dana-Farber Cancer Institute, Inc., priority 2018, published 2021).

Test system: sclerostin
Test: Irisin injection in mice: sclerostin mRNA in osteocyte-enriched bones and plasma sclerostin protein (ELISA)
Format: in vivo
Details: co-injection of 1 mg/kg inhibitor with irisin
Description: 8 weeks old mice were injected daily with indicated dose of irisin for 6 days. […] were collected and treated with collagenase to yield osteocyte-enriched bones. Sclerostin mRNA level from osteocyte-enriched tibia was analyzed by qPCR (FIG. 7A). Cyclophilin was used as a house-keeping gene. Plasma was collected to analyze the circulating sclerostin protein level by ELISA assay (FIG. 7B). Data are represented as mean±SEM. For FIG. 7A and FIG. 7B, n=5 animals/group. * indicates p<0.05, and *** indicates p<0.001.
Certain materials and methods were used to generate the results described herein. For example, the data shown in FIG. 1A resulted from MLO-Y4 (an osteocyte-like cell line) cells treated with the indicated concentration of irisin and hydrogen peroxide for 4 hours. Cells were stained with Hoechst 33342 (ThermoFisher Scientific, catalog number H3570) and Eth-D1 (ThermoFisher Scientific, catalog number E1169) and analyzed to determine the percentage of cell death using ImageJ. […] Co-precipitated irisin was analyzed by immunoblot analysis against flag tag (Sigma Aldrich, catalog number A8592). The data shown in FIGS. 5A and 5B were generated from MLO-Y4 cells treated and analyzed as in the experiments used to generate the data shown in FIG. 2D, except that pre-treatment of 100 nM RGDS (FIG. 5A) or echistatin (R & D Systems Inc., catalog number 3202/100U) (FIG. 5B) for 10 minutes was performed before irisin treatment. […] RNAs were extracted from the cells and the sclerostin mRNA level was analyzed by qPCR (FIG. 6A) or treated and analyzed as in (FIG. 6A), except that pre-treatment of 10 μM RGDS, RGDyK (Selleck, catalog number S7844), or echistatin was performed for 10 minutes before irisin treatment. […] Sclerostin mRNA level was analyzed by qPCR (FIG. 7A). […] Epididymal fats were collected, RNAs were extracted from the tissues, and mRNA levels of the indicated genes were analyzed by qPCR. […]

For N=C(N)NCCC[C@@H]1NC(=O)[C@H](CCCCN)NC(=O)[C@@H](Cc2ccc(O)cc2)NC(=O)[C@H](CC(=O)O)NC(=O)CNC1=O [cyclo RGDyK], the “effect on irisin-induced gene expression of sclerostin in osteocyte-enriched bones” value was “prevented” and the “effect on irisin-induced sclerostin protein level in plasma” value was “prevented”.
